According to patent publication US5565460A, “Therapeutic purine agents for parkinson's disease” (Kyowa Hakko Koygo Co., Ltd., priority 1993, dated 1996):

What was measured:
rid-strain male mice = test: Acute toxicity test; type: in vivo; conditions: oral, seven days after administration
Procedure: Test compounds were orally administered to groups of rid-strain male mice weighing 20±1 g, each group consisting of three mice. Seven days after the administration, minimum lethal dose (MLD) of each compound was determined by observing the mortality.

[1] = test system: Haloperidol-induced catalepsy in mice; test: Effect on haloperidol-induced catalepsy; type: in vivo, male ddY mice; conditions: Mus musculus; ten mice at each dose; effective = catalepsy score 3 or less; Probit analysis; read-out: ED50 (50% effective dose)
[2] = test system: Parkinson's disease model in mice (MPTP); test: Effect on locomotor activity in Parkinson's disease model in mice (MPTP-treated mice); type: in vivo, male C57BL/6 mice; conditions: 30 minutes measurement
Procedure: 1-Methyl-4-phenyl-1,2,3,6-tetrahydropyridine (MPTP) causes symptoms of Parkinson's disease in humans Science, 219, 979 (1983)]. It is reported that an experimental Parkinson's disease model was obtained by administering MPTP to mice [Science, 224, 1451 (1984)]. If a compound is effective on the experimental Parkinson's disease model in mouse, the compound can be expected to have a therapeutic effect on Parkinson's disease.
The experiment was performed by using several groups of 7-weeks-old male C57BL/6 mice (weighing 20 to 24 g, Japan SLC), each group consisting of 8 mice. MPTP (RBI Co., Ltd. ) dissolved in a physiological saline solution (Otsuka Pharmaceutical Co., Ltd. ) was intraperitoneally administered to each mouse once a day for five consecutive days at a dose of 30 mg/kg. Test compounds were suspended in injectable distilled water (Otsuka Pharmaceutical Co., Ltd.) containing Tween 80 [polyoxyethylene (20) sorbitan monooleate]. […] The amount of active movements of each mouse was measured by using Automex-II (Columbus Instruments International Corp.) for the period of 30 minutes starting 30 minutes after the administration of the test compound. The effect of the compounds was evaluated by comparing the average counts of the active movements of the test compound-administered groups with those of the control groups. […]

[3] = test system: Haloperidol-induced catalepsy in mice; test: Effect on haloperidol-induced catalepsy; type: in vivo, male ddY mice; conditions: 10 mg/kg, oral; for Number of the Animals Showing Remission: five mice, catalepsy score not more than 4; for Remission Rate: rate of decrease in total score based on control group; for Total Score (catalepsy): total of five mice, 25 points at the full (control 25), not more than 20 effective
Procedure: The experiment was performed by using several groups of 5-weeks-old male ddY mice (weighing 22.to 24 g, Japan SLC), each group consisting of 5 mice. Haloperidol (Janssen Pharmaceutical) suspended in 0.3% CMC was intraperitoneally administered to each mouse at a dose of 1.0 mg/kg. Test compounds were suspended in 0.3% CMC or in injectable distilled water (Otsuka Pharmaceutical Co., Ltd.) containing Tween 80. L-DOPA (Kyowa Hakko Kogyo Co., Ltd.) and benserazide hydrochloride (Kyowa Hakko Kogyo Co., Ltd.) were suspended in 0.3% CMC. One hour after the haloperidol administration, the test compound suspensions and the control suspension [injectable distilled water (Otsuka Pharmaceutical Co., Ltd.) containing Tween 80] containing no test compound were orally administered to separate groups of the mice (0.1 ml per 10 g of body weight). One hour after the administration of the test compound, the forelimbs of each mouse and subsequently the hindlimbs of the same mouse were placed on a 4.5 cm-high, 1.0 cm-wide bar and catalepsy was estimated. […] The catalepsy score and the standard of judgment are shown. below.
0: forelimbs less than 5 seconds
hindlimbs less than 5 seconds
2: forelimbs 10 seconds or more
hindlimbs 5 seconds or more
hindlimbs 10 seconds or more
5: forelimbs 10 seconds or more
The effect of the compounds was evaluated by the total of the catalepsy scores of five mice in each group (25 points at the full). The groups wherein the total score was not more than 20 point is were estimated to be effective. The number of the animals showing remission against catalepsy is the number of the mice for which the catalepsy score was not more than 4 points.
The ED50 values were calculated by Probit analysis.

[4] = test system: rats with a 6-hydroxydopamine-induced unilateral lesion of the nigrostriatal dopamine pathway; test: Augmentation of the contralateral rotation in rats with a 6-hydroxydopamine-induced unilateral lesion of the nigrostriatal dopamine pathway; type: in vivo, male Sprague-Dawley rats; conditions: 150 minutes
From the text: When a unilateral lesion of the nigrostriatal pathway is induced by 6-hydroxydopamine in rodents, the sensitivity of dopamine receptors in the denervated striatum is enhanced. Administration of a dopamine […] to the rodents in such a condition induces a rotational behavior to the side contralateral to the lesioned side [Acta Physiol. Scand., 367, 69 (1971)]. This model has been used for a long time as a model for the study of Parkinson's disease and in the screening of drugs for this disease [Neurol. Neurobiol.; 33, 1 (1987)].
Male Sprague-Dawley rats (weighing 200 to 240 g, Japan SLC) were pretreated with desipramine hydrochloride (25 mg/kg, i.p., Sigma Co.) 30 minutes before surgery to protect noradrenergic neurons. Then, the animals were: anesthetized with sodium pentobarbital (30 mg/kg, i.p., Dainippon Pharm. Co., Ltd.) and the nigrostriatal pathway was lesioned by injection of 6-hydroxydopamine hydrobromide (8 μg, Sigma Co.) into the left medial forebrain bundle. 6-Hydroxydopamine hydrobromide was dissolved in physiological saline containing 0.05% L-ascorbic acid (Wako Pure Chem. Industries, Ltd.) to make 2 μl. of solution and injected over 3 minutes.
More than 10 days after surgery, each rat was placed in a plastic bowl (30 cm in diameter). […] The number of rotations was counted with an automated rotometer, in which each 180° turn was counted as a rotation. […]

| SMILES | minimum lethal dose (MLD) (rid-strain male mice) | ED50 [1] [mg/kg] | Amount of Active Movements (average count ± S.E.M) ([2]; 10 mg/kg, oral, MPTP group 41 ± 14.3, normal control 1984 ± 122.3) [count] | Number of the Animals Showing Remission [3] | Remission Rate [3] [%] | Total Score (catalepsy) [3] | total rotation counts (average count ± S.E.M.), test compound + apomorphine ([4]; 10 mg/kg oral 30 minutes before apomorphine 0.1 mg/kg, s.c., p<0.05) [count] | Amount of Active Movements (average count ± S.E.M) ([2]; L-DOPA 300 mg/kg, MPTP group 207 ± 85.5, normal control 1875 ± 77.7, no significant difference vs MPTP-treated group) [count] | total rotation counts (average count ± S.E.M.), apomorphine ([4]; apomorphine 0.1 mg/kg, s.c. without test compound) [count] |
| --- | --- | --- | --- | --- | --- | --- | --- | --- | --- |
| Nc1nc(Oc2ccccc2)nc2nc(-c3ccco3)nn12 [Compound 1, 7-Amino-2(2-furyl) -5-phenoxy [1,2,4]triazolo[1,5-a]-1,3,5-triazine] | greater than 300 mg/kg | 1.3 | 785 ± 87.3 | 5 | 80 | 5 | 1011 ± 139 |  |  |
| Nc1nc(Oc2ccccc2)nc2cc(-c3ccco3)nn12 [Compound 2, 7-Amino-2-(2-furyl) -5-phenoxypyrazolo [2,3-a]-1,3,5-triazine] | greater than 300 mg/kg |  |  | 4 | 32 | 17 |  |  |  |
| Nc1nc2ccc(Cl)cc2c2nc(-c3ccco3)nn12 [Compound 3, 5-Amino-9-chloro-2-(2-furyl) -1,2,4-triazolo-[1,5-c]quinazoline] |  |  |  | 4 | 48 | 13 |  |  |  |
| Nc1nc2nn(Cc3ccc(F)cc3)cc2c2nc(-c3ccco3)nn12 [Compound 4, 5-Amino-8-(4-fluorobenzyl) -2-(2-furyl)pyrazolo-[4,3-e]-1,2,4-triazolo [1,5-c]pyrimidine] |  |  |  | 3 | 52 | 12 |  |  |  |
| N[C@@H](Cc1ccc(O)c(O)c1)C(=O)O [L-DOPA, reference compound] |  |  |  |  |  |  |  | 561 ± 271.01 |  |
| CN1CCc2cccc3c2[C@H]1Cc1ccc(O)c(O)c1-3 [apomorphine, reference compound] |  |  |  |  |  |  |  |  | 706 ± 59 |
